experiment: HILIC, Waters Atlantis Premier BEH Z-HILIC, 100 × 2.1 mm, 1.7 µm, 40 °C, 0.17 mL/min, estimated dead time 1.3 min; A: water + 20 mM ammonium carbonate + 5 µM medronic acid; B: 10% water + 90% acetonitrile + 2 mM ammonium carbonate + 0.5 µM medronic acid; gradient (min/%B) 0/100 18/60 18.1/20 21.5/20 22/100 23.5/100 25.5/100; details: stereoisomer not certain

Question: For O=C(O)CCC(=O)C(=O)O [2-Oxoglutaric acid], which LC retention time is on record?
Answer: 9.07 min

Question: Which LC retention time does the source give for O=C(O)CCC(O)C(=O)O (centres undefined) [2-hydroxy glutaric acid] here?
Answer: 9.81 min

Question: With Nc1ncnc2c1ncn2C1OC(COP(=O)(O)OP(=O)(O)O)C(O)C1O (centres undefined) [ADP] as the compound, how does the LC retention time read?
Answer: 11 min

Question: Which LC retention time does the source give for Nc1ncnc2c1ncn2C1OC(COP(=O)(O)O)C(O)C1O (centres undefined) [AMP] here?
Answer: 8.86 min

Question: Which LC retention time does the source give for Nc1ncnc2c1ncn2C1OC(COP(=O)(O)OP(=O)(O)OP(=O)(O)O)C(O)C1O (centres undefined) [ATP] here?
Answer: 13 min

Question: For CC(=O)SCCNC(=O)CCNC(=O)C(O)C(C)(C)COP(=O)(O)OP(=O)(O)OCC1OC(n2cnc3c(N)ncnc32)C(O)C1OP(=O)(O)O (centres undefined) [Acetyl-CoA], which LC retention time is on record?
Answer: 10.5 min

Question: With Nc1ncnc2c1ncn2C1OC(CO)C(O)C1O (centres undefined) [Adenosine] as the compound, how does the LC retention time read?
Answer: 4.21 min

Question: For O=C(O)CCCCC1SCC2NC(=O)NC21 (centres undefined) [Biotin], which LC retention time is on record?
Answer: 4.19 min

Question: For C[N+](C)(C)CC(O)CC(=O)[O-] (centres undefined) [Carnitine], which LC retention time is on record?
Answer: 9.73 min

Question: For O=C(O)CC(O)(CC(=O)O)C(=O)O [Citric acid], which LC retention time is on record?
Answer: 13.9 min

Question: With CC(C)(COP(=O)(O)OP(=O)(O)OCC1OC(n2cnc3c(N)ncnc32)C(O)C1OP(=O)(O)O)C(O)C(=O)NCCC(=O)NCCS (centres undefined) [CoenzymeA] as the compound, how does the LC retention time read?
Answer: 11.9 min

Question: Which LC retention time does the source give for Cc1cc2nc3c(=O)[nH]c(=O)nc-3n(CC(O)C(O)C(O)COP(=O)(O)OP(=O)(O)OCC3OC(n4cnc5c(N)ncnc54)C(O)C3O)c2cc1C (centres undefined) [FAD] here?
Answer: 7.12 min

Question: With O=C(CO)C(O)C(O)C(O)COP(=O)(O)O (centres undefined) [Fructose 6-phosphate] as the compound, how does the LC retention time read?
Answer: 10.9 min

Question: Which LC retention time does the source give for O=P(O)(O)OCC1OC(O)(COP(=O)(O)O)C(O)C1O (centres undefined) [Fructose-1,6-bisphosphate] here?
Answer: 15.2 min

Question: With Nc1nc2c(ncn2C2OC(COP(=O)(O)OP(=O)(O)OP(=O)(O)O)C(O)C2O)c(=O)[nH]1 (centres undefined) [GTP] as the compound, how does the LC retention time read?
Answer: 15.3 min

Question: Which LC retention time does the source give for O=P(O)(O)OCC1OC(O)C(O)C(O)C1O (centres undefined) [Glucose-6-phosphate] here?
Answer: 12.4 min

Question: For NC(CCC(=O)O)C(=O)O (centres undefined) [Glutamic acid], which LC retention time is on record?
Answer: 9.15 min

Question: Which LC retention time does the source give for NC(=O)CCC(N)C(=O)O (centres undefined) [Glutamine] here?
Answer: 10.4 min

Question: With O=P(O)(O)OCC(O)CO (centres undefined) [Glycerol-3-phosphate] as the compound, how does the LC retention time read?
Answer: 9.75 min

Question: Which LC retention time does the source give for OCC1OC(O)C(O)C(O)C1O (centres undefined) [Hexose] here?
Answer: 7.55 min

Question: For O=C(O)CC(C(=O)O)C(O)C(=O)O (centres undefined) [Isocitric acid], which LC retention time is on record?
Answer: 14.5 min

Question: Which LC retention time does the source give for CCC(C)C(N)C(=O)O (centres undefined) [Isoleucine] here?
Answer: 5.97 min

Question: For CC(O)C(=O)O (centres undefined) [Lactic Acid], which LC retention time is on record?
Answer: 2.96 min

Question: For CC(C)CC(N)C(=O)O (centres undefined) [Leucine], which LC retention time is on record?
Answer: 5.72 min

Question: With NC(=O)C1=CN(C2OC(COP(=O)(O)OP(=O)(O)OCC3OC(n4cnc5c(N)ncnc54)C(O)C3O)C(O)C2O)C=CC1 (centres undefined) [NADH] as the compound, how does the LC retention time read?
Answer: 8.45 min

Question: Which LC retention time does the source give for NC(=O)c1ccc[n+](C2OC(COP(=O)(O)OP(=O)(O)OCC3OC(n4cnc5c(N)ncnc54)C(OP(=O)(O)O)C3O)C(O)C2O)c1 (centres undefined) [NADP] here?
Answer: 13.4 min

Question: Which LC retention time does the source give for NC(=O)c1ccc[n+](C2OC(COP(=O)(O)OP(=O)(O)OCC3OC(n4cnc5c(N)ncnc54)C(O)C3O)C(O)C2O)c1 (centres undefined) [NAD] here?
Answer: 10.7 min

Question: With C=C(OP(=O)(O)O)C(=O)O [PEP] as the compound, how does the LC retention time read?
Answer: 13.8 min

Question: With O=C(O)C(CO)OP(=O)(O)O (centres undefined) [Phosphoglyceric acid A] as the compound, how does the LC retention time read?
Answer: 12.2 min

Question: With O=C(O)CCC(=O)O [Succinic Acid] as the compound, how does the LC retention time read?
Answer: 9.16 min

Question: For O=C(CO)COP(=O)(O)O [Triose phosphate], which LC retention time is on record?
Answer: 9.76 min

Question: Which LC retention time does the source give for CC(=O)NC1C(OP(=O)(O)OP(=O)(O)OCC2OC(n3ccc(=O)[nH]c3=O)C(O)C2O)OC(CO)C(O)C1O (centres undefined) [UDP-GlcNAc] here?
Answer: 9.68 min

Question: With CCC(=O)OC(CC(=O)[O-])C[N+](C)(C)C (centres undefined) [carnitine-C3] as the compound, how does the LC retention time read?
Answer: 6.63 min

Question: Which LC retention time does the source give for O=C1CC(C(=O)O)NC(=O)N1 (centres undefined) [dihydroorotic acid] here?
Answer: 4.87 min

From the RepoRT retention time repository
